Measurements published in PubChem BioAssay AID463203 (Broad Institute, 2010).
Activity calls are given as the source filed them.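 How the source made its calls: active means more than half of replicate measurements showing over 20% loss of kinase signal relative to plate controls; inconclusive means some but at most half of replicates over 20% loss; inactive means no replicate over 20% signal loss.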

Target: Glycogen synthase kinase-3 alpha (Homo sapiens) (UniProt P49840)
Experiment: concentration-response blocking of human GSK3A – biochemical, luminescence, cell-free homogeneous, retest, dose response (AID 463203)
Conditions: GSK-3 alpha enzyme, ADP-Glo luminescence, 60 min

Chain of Glycogen synthase kinase-3 alpha (Homo sapiens) (P49840 whole entry, looked up): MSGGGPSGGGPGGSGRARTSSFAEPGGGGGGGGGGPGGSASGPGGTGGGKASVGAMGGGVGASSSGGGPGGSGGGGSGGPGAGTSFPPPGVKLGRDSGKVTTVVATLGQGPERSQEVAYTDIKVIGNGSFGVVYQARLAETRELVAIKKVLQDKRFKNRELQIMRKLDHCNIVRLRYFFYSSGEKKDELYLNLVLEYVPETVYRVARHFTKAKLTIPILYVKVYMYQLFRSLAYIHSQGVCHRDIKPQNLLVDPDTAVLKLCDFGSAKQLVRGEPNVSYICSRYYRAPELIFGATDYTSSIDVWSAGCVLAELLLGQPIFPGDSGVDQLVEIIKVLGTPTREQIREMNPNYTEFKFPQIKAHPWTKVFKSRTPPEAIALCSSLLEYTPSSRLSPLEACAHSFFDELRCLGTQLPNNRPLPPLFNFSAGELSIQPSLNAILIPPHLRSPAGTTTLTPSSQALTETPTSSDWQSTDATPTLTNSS

Row | SMILES | AC50
1 | COc1ccc(OC)c(S(=O)(=O)N2CCN(C(=O)c3cc(C4CC4)nn3-c3ccccc3)CC2)c1 | > 30 µM (inactive)
2 | COc1ccc(-c2cn3cccnc3n2)cc1NC(=O)C1CC1 | > 30 µM (inactive)
3 | O=C(CSc1nc2nc(-c3cccs3)cc(C(F)(F)F)c2c(=O)[nH]1)Nc1ccc(F)c(F)c1 | > 30 µM (inactive)
4 | Cc1nc(S/C(=C/c2ccc(-c3ccc(C(=O)O)cc3)o2)C(=O)O)n[nH]1 | 21.4 µM
5 | Nc1nc(NCc2ccccc2)nc(NCc2ccccc2)c1[N+](=O)[O-] | > 30 µM (inactive)
6 | Cc1ccc(C(=O)N2NC(c3ccccc3F)C3C(=O)N(c4cccc(C)c4)C(=O)C32)cc1 (centres undefined) | > 30 µM (inactive)
7 | O=C(O)c1ccc(Nc2nc(-c3ccccc3)nc3ccccc23)cc1 | > 30 µM (inactive)
8 | CSc1ccc(/C=N/NC(=O)c2ccccc2Cl)cc1 | > 30 µM (inactive)
9 | COc1ccc(-c2cn3cccnc3n2)cc1NC(=O)C1CCCC1 | > 30 µM (inactive)
10 | S=C(NCc1ccccc1)Nc1cccc2cnccc12 | > 30 µM (inactive)
11 | CC1CN(c2nc(N(C)c3ccccc3)nc(N)c2[N+](=O)[O-])CC(C)O1 (centres undefined) | > 30 µM (inactive)
12 | CCN(CC)S(=O)(=O)c1ccc2oc(C(=O)N3CCOCC3)c(C)c2c1 | > 30 µM (inactive)
13 | CCc1ccc(C2CC(c3ccc(F)cc3)Nc3nc(N)nn32)cc1 (centres undefined) | > 30 µM (inactive)
14 | CN(C)CCCNc1oc(-c2ccccc2)nc1C#N | > 30 µM (inactive)
15 | O=C1CC(/C=C/c2ccncc2)=Nc2ccccc2N1 | 13.1 µM
16 | CCOC(=O)c1cc(-c2ccc(F)cc2)n(CC(=O)NCc2ccccn2)c1C | > 30 µM (inactive)
17 | Cc1ccc2nc(Cl)c(/C=N/Nc3ccc(C(=O)O)cc3)cc2c1 | > 30 µM (inactive)
18 | CC1=NN(c2nc(-c3ccc(Cl)cc3)cs2)C(=O)C1 | > 30 µM (inactive)
19 | Clc1ccc(-c2nc3ncccn3c2Nc2ccc3c(c2)OCO3)cc1 | > 30 µM (inactive)
20 | Cc1ccc(C(=O)Nc2cccc(-c3cnc4ccccc4n3)c2)cc1 | > 30 µM (inactive)

Row | SMILES | AC50
21 | Cn1c(O)c(C=NCCc2c[nH]c3ccccc23)c(=O)n(C)c1=O | 27.9 µM
22 | O=C(Nc1cccc(C(=O)N2CCOCC2)c1)c1cccnc1 | > 30 µM (inactive)
23 | COc1ccc(NC(=O)CN(C)S(=O)(=O)c2cnc[nH]2)cc1 | > 30 µM (inactive)
24 | COC(=O)[C@@H](NC(=O)NCc1ccc(F)cc1)C(C)C | > 30 µM (inactive)
25 | C/C(=N\NC(=O)c1ccccc1NC(=O)c1ccc(Cl)cc1)c1ccncc1 | 12.6 µM
26 | CCOC(=O)c1sc(NC(=O)C2CC2)cc1C | > 30 µM (inactive)
27 | COc1ccc(-c2cn3cccnc3n2)cc1NC(=O)CC(C)C | > 30 µM (inactive)
28 | CCCCc1ccc(NC(=O)N[C@H](C(=O)O)C(C)C)cc1 | > 30 µM (inactive)
29 | CCCCCCCNc1nc(Cl)nc(NCCO)n1 | > 30 µM (inactive)
30 | COc1cc(NC(=O)c2cc([N+](=O)[O-])ccc2NC(=O)CNC2CCCCC2)cc(OC)c1 | > 30 µM (inactive)
31 | CCCC1=C(C(=O)OCC)C(c2cccnc2)n2nc(C)nc2N1 (centres undefined) | > 30 µM (inactive)
32 | CN(C)Cc1c(C(=O)N/N=C/C=C/c2ccccc2)nnn1-c1nonc1N | 30 µM
33 | CC(C)(C)OC(=O)N1CCN(C(=O)c2[nH]cnc2C(=O)Nc2ccon2)CC1 | > 30 µM (inactive)
34 | O=C(c1ccco1)N(Cc1ccc([N+](=O)[O-])cc1)c1ccc(Cl)cc1 | > 30 µM (inactive)
35 | NC(=O)c1cc([N+](=O)[O-])ccc1NCc1cccc([N+](=O)[O-])c1 | 3.49 µM
36 | O=C(COC(=O)c1cccc(S(=O)(=O)N2CCOCC2)c1)Nc1ccc(Cl)cn1 | 7.3 µM
37 | COCCOC(=O)c1[nH]c2c(c1C)C(=O)CC(c1cc(OC)c(OC)c(OC)c1)C2 (centres undefined) | > 30 µM (inactive)
38 | CCOC(=O)C(CC)Sc1ccc2nnc(-c3cccnc3)n2n1 (centres undefined) | > 30 µM (inactive)
39 | c1ccc(N2CCN(c3nc4ccccc4n4cnnc34)CC2)cc1 | > 30 µM (inactive)
